Patent publication US20090163413A1, “DENTAL PRODUCTS COMPRISING BONE GROWTH ENHANCING PEPTIDE” (Acologix., Inc., priority 2000, published 2009)
No end group written: not given here.

Tested on: calvaria from 4-days-old mice
Assay: Fetal mouse calvarial assay (mouse calvarial organ culture, histomorphometrical analysis of new bone area)
Assay type: cell-based
Conditions: assay terminated at day 7, FGF-1 as positive control
Method: FGF-1 was purchased from Peprotech Inc. (Rocky Hill, N.J.). RGD-1, 2, 3, 4, 5 and 6 (referred to here as D-00001, D-00002, D-00003, D-00004, D-00005 and D-00006) were provided by Dr. Nomizu (Hokkaido University, Japan).
Pregnant ICR mice were purchased from SLC Japan Co. Ltd. (Shizuoka, Japan).
Mouse calvarial organ culture was performed as described in Mundy G et al. Science 286: 1946-1949, 1999 and Traianedes K et al. Endocrinology 139: 3178-3184, 1998. The calvaria from 4-days-old mice were excised and cut in half along the sagittal suture. Each half of the calvaria was placed on a stainless steel grid in a 12-well tissue culture dish (Asahi Glass Techno Corp., Funabashi, Japan). Each well contained 1.5 ml of BGj medium (Sigma, St. Louis, Mo.) supplemented with 0.1% bovine serum albumin (Sigma) and each compound. FGF-1 was used as a positive control as described by Mundy et al. The medium was changed at day 1 and 4, and the assay was terminated at day 7.
Calvaria was fixed with 10% neutral-buffered formalin, decalcified with 4.13% EDTA and embedded in paraffin. […] sections were made and stained with hematoxylin and eosin. New bone area was measured using Image-Pro Plus (Media Cybernetics, Silver Spring, Md.).
The six peptides of Example 1 were tested for their ability to enhance bone growth with the tests being carried out as described above in Example 2.

Sequence	ability to enhance bone growth (new bone area)
ERGDNDISPFSGDGQ (ERGDNDISPFSGDGQ-NH2) [D-00004]	best results
TDLQERGDNDISPFSGDGQPFKD [D-00006]	best results
